# Test results: patent US20210205329A1 (The University of North Carolina at Chapel Hill, priority 2018, published 2021)
# “And” between values parts separate entries of the source, which are not always exact repeats. Equal entries are not always repeated.
# Legend:
# TLR7 signal = assay: Imiquimod-activated TLR7 signaling in RAW264.7 cells; assay type: cell-based, mouse; settings: 1 μM; imiquimod 1 μg/ml; 24 hours
# Protocol: Because multiple TLRs signal through MD-2, […] and MyD-88, the specificity of the neurosteroid 3α,5α-THP on TLR2, TLRS and TLR7 signal activation was examined in RAW264.7 ceils (FIG. 7). Pam3Cys (10 μg/ml) activated TLR2 signaling, evidenced by increases in pCREB, pERK1/2, TRAF6 and pATF-2, that were sustained for 24 hrs and inhibited by 3α,5α-THP (1 μM) (50-60% compared to vehicle).
# TLR4/GABAAR α2 binding = target: T1, TLR4/GABAAR α2 binding (Rattus norvegicus, UniProt Q9QX05); assay: TLR4/GABAAR α2 co-immunoprecipitation in P rat VTA; assay type: in vivo; settings: 15 mg/kg IP, P rats
# T1 construct: from tissue; host or cells: ventral tegmental area (VTA) of alcohol-preferring (P) rats
# T1 sequence (Q9QX05 26-835): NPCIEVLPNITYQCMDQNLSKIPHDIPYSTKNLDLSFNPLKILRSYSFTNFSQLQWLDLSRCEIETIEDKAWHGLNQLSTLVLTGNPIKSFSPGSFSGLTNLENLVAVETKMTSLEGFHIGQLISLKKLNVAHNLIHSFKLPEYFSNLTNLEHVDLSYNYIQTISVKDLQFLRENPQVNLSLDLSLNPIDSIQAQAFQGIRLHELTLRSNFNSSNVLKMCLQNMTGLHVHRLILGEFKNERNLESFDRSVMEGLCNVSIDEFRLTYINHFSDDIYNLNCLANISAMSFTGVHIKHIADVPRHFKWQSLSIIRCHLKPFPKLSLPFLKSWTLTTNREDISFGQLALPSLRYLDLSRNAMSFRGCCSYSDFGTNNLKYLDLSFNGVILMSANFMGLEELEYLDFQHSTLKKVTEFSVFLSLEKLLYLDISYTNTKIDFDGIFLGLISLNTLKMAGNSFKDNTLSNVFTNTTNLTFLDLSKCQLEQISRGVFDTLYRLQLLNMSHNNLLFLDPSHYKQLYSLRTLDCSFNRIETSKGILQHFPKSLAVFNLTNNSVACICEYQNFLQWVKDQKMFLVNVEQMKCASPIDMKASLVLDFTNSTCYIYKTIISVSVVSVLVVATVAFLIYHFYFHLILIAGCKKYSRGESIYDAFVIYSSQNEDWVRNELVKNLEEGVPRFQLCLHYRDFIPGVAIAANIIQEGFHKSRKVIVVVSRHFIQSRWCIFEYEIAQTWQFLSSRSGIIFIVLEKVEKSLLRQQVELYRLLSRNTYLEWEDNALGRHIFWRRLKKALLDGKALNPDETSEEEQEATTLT
# Protocol: (§1) Co-Immunoprecipitation Assay RAW264.7 cells [treated with LPS (1 μg/ml), 3α,5α-THP (1 μM) or pregnenolone (1 μM)] were exposed to chemical protein crosslinking (Poulopoulos et al, 2009) at 24 hrs post-treatment. Briefly, the cells were incubated (20 min on ice) with 1 mM of the cleavable, membrane-permeable crosslinker DSP (Thermo Fisher Scientific, Cat. #PG82081). Rat VTA homogenates were incubated (20 min on ice) with 200 μM of DSP. The crosslinker was quenched in 1 M Tris buffer (pH 7.5) (to a final concentration of 10-20 mM), and the material was centrifuged at 21,000×g for 15 min. Proteins from the cells were extracted with Pierce IP Lysis Buffer (Thermo Fisher Scientific, Cat. #87787) supplemented with protease and phosphatase inhibitor cocktails (Sigma). Proteins from the VTA were extracted with CelLytic MT (dialyzable mild detergent, bicine and 150 mM NaCl; Sigma Aldrich, St. Louis, Mo., USA, Cat. #C3228) supplemented with protease and phosphatase inhibitor cocktails (Sigma) according to the manufacturers instructions. […]
# HMGB1 binding to TLR4 = target: T2, HMGB1 binding to TLR4 (Rattus norvegicus, UniProt Q9QX05); assay: TLR4/HMGB1 co-immunoprecipitation in P rat VTA; assay type: in vivo; settings: 15 mg/kg IP, P rats
# T2 construct: from tissue; host or cells: ventral tegmental area (VTA) of alcohol-preferring (P) rats
# T2 sequence (Q9QX05 26-835): T1 sequence (Q9QX05 26-835)
# Protocol: as §1
smiles,measurement,setting,value
"CC(=O)[C@H]1CC[C@H]2[C@@H]3CC[C@H]4C[C@H](O)CC[C@]4(C)[C@H]3CC[C@]12C [3α,5α-THP, (3α,5α)3-hydroxypregnan-20-one]",effect of imiquimod on pIRF7,TLR7 signal,completely inhibited
same,inhibition of TLR4/GABAAR α2 binding (α2 co-precipitating with TLR4) in VTA,TLR4/GABAAR α2 binding,62.7±9.2% and 82.7±9.2% and ~80%
same,HMGB1 binding to TLR4 in VTA,HMGB1 binding to TLR4,not altered
